# Where two headings read alike, the source gives them in different places.
# What was measured:
# LNCaP = test: Inhibition of cells growth by colorimetric assay (SRB); conditions: Homo sapiens, LNCaP, 48 h
# Method in brief: (§1)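 Colorimetric SRB read (490 nm) on triplicate wells after 48 h at 37 °C, 5% CO2. Dose range 10 to 10^−8 μg/ml; 5×10^3 cells/well pre-attached 18 h.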
# HeLa = test: as above; conditions: Homo sapiens, HeLa, 48 h
# Method in brief: as §1
# LoVo-Dox = test: as above; conditions: Homo sapiens, 48 h
# Method in brief: as §1
# K-562 = test: as above; conditions: Homo sapiens, K562, 48 h
# Method in brief: as §1
# IGROV-ET = test: as above; conditions: Homo sapiens, 48 h
# Method in brief: as §1
# SK-MEL-28 = test: as above; conditions: Homo sapiens, SK-MEL-28, 48 h
# Method in brief: as §1
# DU-145 = test: as above; conditions: Homo sapiens, DU-145, 48 h
# Method in brief: as §1
# IGROV-1 = test: as above; conditions: Homo sapiens, IGROV-1, 48 h
# Method in brief: as §1
# SK-BR-3 = test: as above; conditions: Homo sapiens, SK-BR-3, 48 h
# Method in brief: as §1
# PANC-1 = test: as above; conditions: Homo sapiens, PANC-1, 48 h
# Method in brief: as §1
# HeLa-APL = test: as above; conditions: Homo sapiens, 48 h
# Method in brief: as §1
# HT-29 = test: cells; conditions: Homo sapiens, HT-29, 48 h
# Method in brief: as §1
# LoVo = test: cells; conditions: Homo sapiens, LoVo, 48 h
# Method in brief: as §1
# A-549 = test: cells; conditions: Homo sapiens, A549, 48 h
# Method in brief: as §1
smiles,measurement,setting,value
C=CCN1[C@@H]2c3c(cc(C)c(OC)c3O)C[C@H]1[C@H](C#N)N1C2[C@@H]2SC[C@]3(NCCc4cc(OC(=O)OC(C)(C)C)c(OC)cc43)C(=O)OC[C@H]1c1c3c(c(C)c(OC(C)=O)c12)OCO3 (stereo partly drawn) [compound 44],GI50,LNCaP; read-out: LNCAP GI50,4.53 nM
same,CC50,LNCaP; read-out: LNCAP LC50,48 nM
same,IC (TGI),LNCaP; read-out: LNCAP TGI,20.4 nM
same,GI50,HeLa; read-out: HELA GI50,20.2 nM
same,CC50,HeLa; read-out: HELA LC50,87.5 nM
same,IC (TGI),HeLa; read-out: HELA TGI,42 nM
same,GI50,LoVo-Dox; read-out: LOVO-DOX GI50,297 nM
same,CC50,LoVo-Dox; read-out: LOVO-DOX LC50,11100 nM
same,IC (TGI),LoVo-Dox; read-out: LOVO-DOX TGI,919 nM
same,GI50,K-562; read-out: K562 GI50,7.97 nM
same,CC50,K-562; read-out: K562 LC50,11100 nM
same,IC (TGI),K-562; read-out: K562 TGI,77.9 nM
same,GI50,IGROV-ET; read-out: IGROV-ET GI50,49.2 nM
same,CC50,IGROV-ET; read-out: IGROV-ET LC50,11100 nM
same,IC (TGI),IGROV-ET; read-out: IGROV-ET TGI,443 nM
same,GI50,SK-MEL-28; read-out: MEL-28 GI50,23.4 nM
same,CC50,SK-MEL-28; read-out: MEL-28 LC50,90.1 nM
same,IC (TGI),SK-MEL-28; read-out: MEL-28 TGI,45.9 nM
same,GI50,DU-145; read-out: DU145 GI50,23.4 nM
same,CC50,DU-145; read-out: DU145 LC50,11100 nM
same,IC (TGI),DU-145; read-out: DU145 TGI,71.9 nM
same,GI50,IGROV-1; read-out: IGROV GI50,32.6 nM
same,CC50,IGROV-1; read-out: IGROV LC50,11100 nM
same,IC (TGI),IGROV-1; read-out: IGROV TGI,78 nM
same,GI50,SK-BR-3; read-out: SK-BR3 GI50,3.27 nM
same,CC50,SK-BR-3; read-out: SK-BR3 LC50,76.1 nM
same,IC (TGI),SK-BR-3; read-out: SK-BR3 TGI,11.9 nM
same,GI50,PANC-1; read-out: PANC-1 GI50,75.2 nM
same,CC50,PANC-1; read-out: PANC-1 LC50,11100 nM
same,IC (TGI),PANC-1; read-out: PANC-1 TGI,344 nM
same,GI50,HeLa-APL; read-out: HELA-APL GI50,25 nM
same,CC50,HeLa-APL; read-out: HELA-APL LC50,352 nM
same,IC (TGI),HeLa-APL; read-out: HELA-APL TGI,59.6 nM
same,GI50,HT-29; read-out: HT29 GI50,38.8 nM
same,CC50,HT-29; read-out: HT29 LC50,11100 nM
same,IC (TGI),HT-29; read-out: HT29 TGI,1540 nM
same,GI50,LoVo; read-out: LOVO GI50,33.9 nM
same,CC50,LoVo; read-out: LOVO LC50,11100 nM
same,IC (TGI),LoVo; read-out: LOVO TGI,143 nM
same,GI50,A-549; read-out: A549 GI50,27.4 nM
same,CC50,A-549; read-out: A549 LC50,470 nM
same,IC (TGI),A-549; read-out: A549 TGI,56.7 nM
C=CCN1[C@@H]2c3c(cc(C)c(OC)c3O)C[C@H]1[C@H](C#N)N1C2[C@@H]2SCC(N)C(=O)OC[C@H]1c1c3c(c(C)c(OC(C)=O)c12)OCO3 (stereo partly drawn) [compound 12],GI50,LNCaP; read-out: GI50 LNCAP,82.5 nM
same,CC50,LNCaP; read-out: LC50 LNCAP,711 nM
same,IC (TGI),LNCaP; read-out: TGI LNCAP,251 nM
same,GI50,HeLa; read-out: GI50 HELA,344 nM
same,CC50,HeLa; read-out: LC50 HELA,1120 nM
same,IC (TGI),HeLa; read-out: TGI HELA,621 nM
same,GI50,LoVo-Dox; read-out: GI50 LOVO-DOX,504 nM
same,CC50,LoVo-Dox; read-out: LC50 LOVO-DOX,12200 nM
same,IC (TGI),LoVo-Dox; read-out: TGI LOVO-DOX,971 nM
same,GI50,K-562; read-out: GI50 K562,110 nM
same,CC50,K-562; read-out: LC50 K562,15400 nM
same,IC (TGI),K-562; read-out: TGI K562,2510 nM
same,GI50,IGROV-ET; read-out: GI50 IGROV-ET,635 nM
same,CC50,IGROV-ET; read-out: LC50 IGROV-ET,3820 nM
same,IC (TGI),IGROV-ET; read-out: TGI IGROV-ET,1070 nM
same,GI50,SK-MEL-28; read-out: GI50 MEL-28,350 nM
same,CC50,SK-MEL-28; read-out: LC50 MEL-28,1030 nM
same,IC (TGI),SK-MEL-28; read-out: TGI MEL-28,603 nM
same,GI50,DU-145; read-out: GI50 DU145,535 nM
same,CC50,DU-145; read-out: LC50 DU145,4220 nM
same,IC (TGI),DU-145; read-out: TGI DU145,1020 nM
same,GI50,IGROV-1; read-out: GI50 IGROV,225 nM
same,CC50,IGROV-1; read-out: LC50 IGROV,1050 nM
same,IC (TGI),IGROV-1; read-out: TGI IGROV,486 nM
same,GI50,SK-BR-3; read-out: GI50 SK-BR3,256 nM
same,CC50,SK-BR-3; read-out: LC50 SK-BR3,979 nM
same,IC (TGI),SK-BR-3; read-out: TGI SK-BR3,501 nM
same,GI50,PANC-1; read-out: GI50 PANC-1,472 nM
same,CC50,PANC-1; read-out: LC50 PANC-1,4070 nM
same,IC (TGI),PANC-1; read-out: TGI PANC-1,953 nM
same,GI50,HeLa-APL; read-out: GI50 HELA-APL,244 nM
same,CC50,HeLa-APL; read-out: LC50 HELA-APL,914 nM
same,IC (TGI),HeLa-APL; read-out: TGI HELA-APL,472 nM
same,GI50,HT-29; read-out: GI50 HT29,503 nM
same,CC50,HT-29; read-out: LC50 HT29,15400 nM
same,IC (TGI),HT-29; read-out: TGI HT29,1270 nM
same,GI50,LoVo; read-out: GI50 LOVO,399 nM
same,CC50,LoVo; read-out: LC50 LOVO,3210 nM
same,IC (TGI),LoVo; read-out: TGI LOVO,808 nM
same,GI50,A-549; read-out: GI50 A549,338 nM
same,CC50,A-549; read-out: LC50 A549,1160 nM
same,IC (TGI),A-549; read-out: TGI A549,624 nM
